Assay results from patent publication US10213428B2, “(4-((3R,4R)-3-methoxytetrahydro-pyran-4-ylamino)piperidin-1-yl)(5-methyl-6-(((2R,6S)-6-(p-tolyl)tetrahydro-2H-pyran-2-yl)methylamino)pyrimidin-4-yl)methanone citrate” (Centrexion Therapeutics Corporation, priority 2015, dated 2019).
pIC50: −log10 of the molar value.

Legend:
[1] = In vitro metabolic stability in hepatocyte incubations, mouse; type: in vitro ADME; settings: hepatocytes (suspension); Mouse; predicted from hepatocyte CL intrinsic, well stirred model; read-out: CL, in vivo
Description: (§1) Metabolic degradation of the test compound is assayed in a hepatocyte suspension. Hepatocytes are incubated in an appropriate buffer system. Following a (typically) 30 min preincubation in an incubator (37° C., 10% CO2) 5 μL of test compound solution (1 μM) are added into 395 μL hepatocyte suspension (cell density in the range 0.25-5 Mio cells/mL, typically 1 Mio cells/mL, final DMSO concentration 0.05%). The cells are incubated for six hours (incubator, orbital shaker) and samples (25 μL) are taken at 0, 0.5, 1, 2, 4 and 6 hours. Samples are transferred into acetonitrile and pelleted by centrifugation (5 min). The supernatant is transferred to a new 96-deepwell plate, evaporated under nitrogen and resuspended. Decline of parent compound is analyzed by HPLC-MS/MS. CLint is calculated as follows CL_INTRINSIC=Dose/AUC=(CO/CD)/(AUD+clast/k)×1000/60. […]

[2] = test system: hepatocytes; test: as above; type: in vitro ADME; settings: Mouse hepatocytes, 1 μM
Description: as §1

[3] = Oral pharmacokinetics in dog; type: in vivo, beagle dogs; settings: oral dose 5 μmol/kg
From the text: The pharmacokinetics of the test compound following single intravenous (IV) or oral (PO) doses were examined in • female BALB/c mice (average weight: 25 g) • male Wistar(Han) rats (average weight: 260 g) • male and female Göttingen Minipigs (average weight: 24 kg) • male beagle dogs (average weight: 15 kg) All non-rodent species were fasted overnight prior to dosing, while mice and rats had food and water available ad libitum. The p.o. dose of the compound was usually administered as suspension in 0.5% Natrosol or as a 0.5% Natrosol/0.015% Tween 80 suspension. For i.v. dosing purposes, the doses were applied as a solution in 0.9% NaCL, or as a solution containing 9.1% HP-beta Cyclodextrin in water.
Blood was collected by venous sampling and soaking of the blood in EDTA coated tubes. Samples were collected for up to 48 h after administration of the test compound. Plasma was then separated by centrifugation (5 min by approximately 9000 g at 4° C.). For determination of the test compound, plasma was transferred into PCR plates. All samples were stored at approximately −20° C. until bioanalytics. The test compound concentrations in plasma were determined by HPLC MS/MS. The lower limit of quantification was between 0.5 nmol/L and 1 nmol/L.

[4] = target: T1, hERG (Homo sapiens, UniProt Q12809); test: hERG-channel assay (whole-cell patch clamp, HEK293 cells transfected with hERG cDNA); type: cell-based; settings: human, HEK293 cells stably transfected with hERG cDNA, pH 7.4, read-out: inhibition of hERG-mediated potassium current
T1 construct: expressed in transfected cells
T1 sequence (Q12809 whole entry): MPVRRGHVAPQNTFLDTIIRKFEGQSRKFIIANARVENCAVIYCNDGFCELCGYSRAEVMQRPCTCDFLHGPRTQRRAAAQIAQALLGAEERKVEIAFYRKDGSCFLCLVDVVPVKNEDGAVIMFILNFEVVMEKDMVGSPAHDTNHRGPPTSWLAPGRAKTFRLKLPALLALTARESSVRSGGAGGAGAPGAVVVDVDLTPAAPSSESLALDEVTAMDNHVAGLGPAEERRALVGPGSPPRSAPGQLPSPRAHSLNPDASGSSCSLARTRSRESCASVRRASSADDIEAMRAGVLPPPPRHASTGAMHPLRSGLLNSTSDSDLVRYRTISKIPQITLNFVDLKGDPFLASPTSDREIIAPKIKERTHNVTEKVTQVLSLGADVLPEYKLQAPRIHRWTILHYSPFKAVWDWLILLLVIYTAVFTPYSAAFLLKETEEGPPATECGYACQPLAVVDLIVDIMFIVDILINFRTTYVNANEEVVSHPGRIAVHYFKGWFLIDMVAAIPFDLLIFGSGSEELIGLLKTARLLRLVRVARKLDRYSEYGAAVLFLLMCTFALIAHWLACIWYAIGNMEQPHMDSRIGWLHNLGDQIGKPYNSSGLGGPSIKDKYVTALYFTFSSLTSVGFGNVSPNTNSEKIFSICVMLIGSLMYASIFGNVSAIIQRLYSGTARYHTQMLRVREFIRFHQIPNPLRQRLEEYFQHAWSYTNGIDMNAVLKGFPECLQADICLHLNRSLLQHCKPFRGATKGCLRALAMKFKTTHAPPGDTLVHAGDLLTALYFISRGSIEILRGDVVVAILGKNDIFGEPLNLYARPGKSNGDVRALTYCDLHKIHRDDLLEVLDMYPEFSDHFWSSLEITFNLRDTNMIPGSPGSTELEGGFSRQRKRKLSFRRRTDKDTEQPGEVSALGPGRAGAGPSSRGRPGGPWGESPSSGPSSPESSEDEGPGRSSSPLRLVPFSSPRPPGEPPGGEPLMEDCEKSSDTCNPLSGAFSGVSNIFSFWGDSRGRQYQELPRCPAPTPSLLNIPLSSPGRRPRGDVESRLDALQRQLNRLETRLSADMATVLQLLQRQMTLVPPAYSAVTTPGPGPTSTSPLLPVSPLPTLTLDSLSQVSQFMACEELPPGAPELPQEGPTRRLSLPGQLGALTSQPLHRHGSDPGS
From the text: (§2) HEK (human embryonic kidney) 293 cells were stably transfected with hERG cDNA. Cells determined for use in patch clamp experiments were cultivated without antibiotic.
(§3) Cells were superfused with a bath solution containing (mM): NaCl (137), KCl (4.0), MgCl2 (1.0), CaCl2 (1.8), Glucose (10), HEPES (10), pH 7.4 with NaOH. Patch pipettes were made from borosilicate glass tubing (Hilgenberg, Malsfeld, Germany) using a horizontal puller (DMZ-Universal Puller, Zeitz-Instrumente, Martinsried, Germany) and filled with pipette solution containing (mM): K-aspartate (130), MgCl2 (5.0), EGTA (5.0), K2ATP (4.0), HEPES (10.0), pH 7.2 with KOH. Resistance of the microelectrodes was in the range between 2 and 5 MΩ.
(§4) Membrane currents were recorded using an EPC-10 patch clamp amplifier (HEKA Electronics, Lambrecht, Germany) and PatchMaster software (HEKA). The current signals were Bessel filtered at 2.5 kHz before being digitized at 5 kHz.
(§5) hERG-mediated membrane currents were recorded at typically 28° C., using the whole-cell configuration of the patch-clamp technique. […] During each inter-pulse interval 4 pulses scaled down by a factor of 0.2 were recorded for a P/n leak subtraction procedure. […] The remaining uncompensated Rs was recorded as well as actual temperature and holding current.
(§6) The concentrations of the test item were applied sequentially on each of the different cells investigated. A steady state level of baseline current was measured for at least 90 s prior to the application of the first test article concentration. […]
(§7) Peak current amplitudes were measured 3 ms after the ramp to +40 mV. […] Residual currents (I/I0) were calculated for each cell as the fraction of actual average peak current and average baseline peak current. Current inhibition was expressed as (1−I/I0)*100%. […]

[5] = target: T2, hERG-mediated potassium current (Homo sapiens, UniProt Q12809); test: as above; type: cell-based; settings: HEK293 cells, whole-cell patch clamp; read-out: IC50, inhibition of hERG-mediated potassium current
T2 construct: expressed in transfected cells
T2 sequence (Q12809 whole entry): as above
From the text: as §2, §3, §4, §5, §6, §7

[6] = male, beagle, plasma, 5 umol/kg, mean values

**Q.** With `CO[C@H]1COCC[C@H]1NC1CCN(C(=O)c2ncnc(NC[C@H]3CCC[C@@H](c4ccc(C)cc4)O3)c2C)CC1` [compound I, (4-((3R,4R)-3-methoxytetrahydro-pyran-4-ylamino)piperidin-1-yl)(5-methyl-6-(((2R,6S)-6-(p-tolyl)tetrahydro-2H-pyran-2-yl)methylamino)pyrimidin-4-yl)methanone] as the compound, how does the CLhep predicted at 1 μM [1] read?
**A.** 49 mL/min/kg

**Q.** What about the “CL intrinsic, in vitro” value [2] of the same compound?
**A.** 16.4 μL/min/10e6 cells

**Q.** What about the AUC(0-inf) [3, 6] of the same compound?
**A.** 1.5 µM·h

**Q.** And the Cmax [3, 6]?
**A.** 317 nM

**Q.** What about the Tmax [3, 6] of the same compound?
**A.** 55 min

**Q.** And the MRTtot ([3]; mean values)?
**A.** 346 min

**Q.** And the F ([3]; oral bioavailability)?
**A.** 25%

**Q.** What about the inhibition at 10 µM ([4]; at 10 μM) of the same compound?
**A.** 12%

**Q.** What about the inhibition at 30 µM ([4]; at 30 μM) of the same compound?
**A.** 28%

**Q.** What about the pIC50 [5] of the same compound?
**A.** < 4.52
